Values of other authors as cited in patent US20210386743A1, “USE OF PDE9 INHIBITORS FOR TREATMENT” (The Johns Hopkins University, priority 2018, published 2021).
Like-named read-outs stand apart in the source and are kept apart here.

Tested on: female mice, models of heart disease
Details: cited from earlier work

For `CCCc1nn(C)c2c(=O)[nH]c(-c3cc(S(=O)(=O)N4CCN(C)CC4)ccc3OCC)nc12` [sildenafil], the “treatment of heart disease” value (female mice with ovaries, several models of heart disease) is listed as “successfully treated”, the “treatment of heart disease” value (female mice, ovaries first removed) is listed as “totally ineffective” and the “treatment of heart disease” value (female mice, ovaries removed, exogenous estrogen replacement) is listed as “rescued”.
